Reference: patent US4528027A, “Acylthio-substituted triazines” (Shell Oil Company, priority 1984, dated 1985)
Where two headings read alike, the source gives them in different places.

Assay: Approximate solubility in xylene at room temperature
Assay type: physicochemical

CCN(SC(=O)OC)c1nc(Cl)nc(NC(C)(C)C#N)n1 [Compound 1, 2-chloro-4-(1-cyano-1-methylethylamino)-6-(N-ethyl-N-((methoxycarbonyl)thio))-1,3,5-triazine]
Approximate Solubility at Room Temperature, Grams of Compound per 100 Grams of Xylene: 26 Grams of Compound per 100 Gram

CCNc1nc(Cl)nc(NC(C)(C)C#N)n1 [Compound 1B, 2-chloro-4-(1-cyano-1-methylethylamino)-6-ethylamino-1,3,5-triazine, reference compound]
Approximate Solubility at Room Temperature, Grams of Compound per 100 Grams of Xylene (xylene, room temperature): 0.3 Grams of Compound per 100 Gram

CCN(SC(=O)OC)c1nc(Cl)nc(NC(C)C)n1 [Compound 5]
Approximate Solubility at Room Temperature, Grams of Compound per 100 Grams of Xylene: > 150 Grams of Compound per 100 Gram

CCN(SC(=O)OC)c1nc(NC(C)C)nc(OC)n1 [Compound 14, 2-methoxy-4-(1-methylethylamino)-6-(N-ethyl-N-((methoxycarbonyl)thio))-1,3,5-triazine]
Approximate Solubility at Room Temperature, Grams of Compound per 100 Grams of Xylene: > 150 Grams of Compound per 100 Gram

CCNc1nc(NC(C)C)nc(OC)n1 [Compound 14A, 2-methoxy-4-(1-methylethylamino)-6-ethylamino-1,3,5-triazine, reference compound]
Approximate Solubility at Room Temperature, Grams of Compound per 100 Grams of Xylene (xylene, room temperature): 25 Grams of Compound per 100 Gram

CCN(SC(=O)OC)c1nc(NC(C)C)nc(SC)n1 [Compound 15, 2-(methylthio)-4-(1-methylethylamino)-6-(N-ethyl-N-((methoxycarbonyl)thio))-1,3,5-triazine]
Approximate Solubility at Room Temperature, Grams of Compound per 100 Grams of Xylene: > 150 Grams of Compound per 100 Gram
